Laboratory results published in patent US6245743A, “Inhibitors of factor Xa” (COR Therapeutics, Inc., priority 1998, dated 2001).
Square brackets hold non-standard residues; d marks the D form. Peptide text beside a SMILES is read from it. * marks the point of attachment. Hydrocinnamoyl = O=C(CCc1ccccc1)*; dCit = NC(=O)NCCC[C@@H](N)C(=O)O; Boc = CC(C)(C)OC(=O)*

How the values were obtained:
prothrombinase complex = prothrombinase complex (Homo sapiens, UniProt P00742); assay: Prothrombinase inhibition assay, plasma free system (thrombin generation, Chromozym TH); format: biochemical; conditions: read-out: Inhibitory Activity (IC50) Prothrombinase
factor Xa = factor Xa (Homo sapiens, UniProt P00742); assay: Factor Xa amidolytic assay (chromogenic substrate S2765); format: biochemical; conditions: read-out: Inhibitory Activity (IC50) Factor Xa
[1] = test system: rabbit venous thrombosis model; assay: Rabbit deep vein (venous) thrombosis model; format: in vivo; conditions: for Hct: mean (SD on next line); for PLT / RBC / WBC: mean±SD
Excerpt: Rabbits were anesthetized with I.M. injections of Ketamine, Xylazine, and Acepromazine cocktail.

[2] = Cuticle bleeding time model in rabbits; format: in vivo, rabbit; conditions: 1500 μg/kg+14.85 μg/kg/min, bleeding time experiments
Protocol: In an ancillary study, a Cuticle Bleeding Time model was used to evaluate the effect of test compounds on bleeding time (BT) measurements in rabbits. The standardized protocol involved anesthesia and catheterization of rabbits as previously described in this Example 43. To measure BT, a toe nail was cut 5 mm from the base of the cuticle with a canine nail trimming device. Time until cessation of bleeding was recorded by wicking the blood on to BT blotting paper in 30 second intervals. Test compound was administered as a bolus followed by infusion regimen. Two BT measurements were obtained prior to administration of test compound and three BT measurements accomplished serially after initiation of steady state infusion of test compound. BT measurements were allowed to continue for up to 30 minutes at which time it was stopped with application of silver nitrate. Blood samples were obtained just prior to all BT measurements and processed for measurement of hematological and coagulation parameters.

prothrombinase complex, sequence (P00742 235-488 limits assumed): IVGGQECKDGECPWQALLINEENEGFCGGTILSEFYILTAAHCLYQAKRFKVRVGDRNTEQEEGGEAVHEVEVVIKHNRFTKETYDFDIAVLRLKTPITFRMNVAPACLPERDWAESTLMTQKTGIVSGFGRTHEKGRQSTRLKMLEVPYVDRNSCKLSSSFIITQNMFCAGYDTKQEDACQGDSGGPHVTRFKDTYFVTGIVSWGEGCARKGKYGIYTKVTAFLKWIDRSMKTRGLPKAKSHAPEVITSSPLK
prothrombinase complex, sequence (P00742 41-179 limits assumed): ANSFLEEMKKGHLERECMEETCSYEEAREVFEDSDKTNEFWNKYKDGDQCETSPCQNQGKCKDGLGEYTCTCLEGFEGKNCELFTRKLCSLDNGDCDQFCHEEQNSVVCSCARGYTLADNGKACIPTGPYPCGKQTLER
prothrombinase complex, sequence (P12259 29-737 partner limits assumed): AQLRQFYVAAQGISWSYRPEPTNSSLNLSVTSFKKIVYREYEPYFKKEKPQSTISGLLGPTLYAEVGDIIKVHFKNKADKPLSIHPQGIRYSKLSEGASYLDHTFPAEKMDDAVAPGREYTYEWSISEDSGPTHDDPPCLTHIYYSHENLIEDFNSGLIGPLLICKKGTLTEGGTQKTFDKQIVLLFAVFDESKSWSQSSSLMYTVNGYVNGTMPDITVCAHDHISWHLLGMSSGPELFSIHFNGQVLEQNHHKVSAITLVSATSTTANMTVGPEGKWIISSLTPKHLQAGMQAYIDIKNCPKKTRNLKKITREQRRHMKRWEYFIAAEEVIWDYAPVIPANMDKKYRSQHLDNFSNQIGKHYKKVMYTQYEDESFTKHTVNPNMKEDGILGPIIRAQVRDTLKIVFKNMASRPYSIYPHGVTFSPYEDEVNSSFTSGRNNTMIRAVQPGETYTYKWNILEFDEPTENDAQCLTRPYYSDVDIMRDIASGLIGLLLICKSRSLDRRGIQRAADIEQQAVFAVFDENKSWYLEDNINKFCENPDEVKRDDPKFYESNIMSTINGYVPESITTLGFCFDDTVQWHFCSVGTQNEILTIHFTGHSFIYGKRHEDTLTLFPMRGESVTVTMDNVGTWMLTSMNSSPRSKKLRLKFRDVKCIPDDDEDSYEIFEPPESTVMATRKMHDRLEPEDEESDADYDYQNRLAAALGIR
prothrombinase complex, sequence (P12259 1574-2224 partner limits assumed): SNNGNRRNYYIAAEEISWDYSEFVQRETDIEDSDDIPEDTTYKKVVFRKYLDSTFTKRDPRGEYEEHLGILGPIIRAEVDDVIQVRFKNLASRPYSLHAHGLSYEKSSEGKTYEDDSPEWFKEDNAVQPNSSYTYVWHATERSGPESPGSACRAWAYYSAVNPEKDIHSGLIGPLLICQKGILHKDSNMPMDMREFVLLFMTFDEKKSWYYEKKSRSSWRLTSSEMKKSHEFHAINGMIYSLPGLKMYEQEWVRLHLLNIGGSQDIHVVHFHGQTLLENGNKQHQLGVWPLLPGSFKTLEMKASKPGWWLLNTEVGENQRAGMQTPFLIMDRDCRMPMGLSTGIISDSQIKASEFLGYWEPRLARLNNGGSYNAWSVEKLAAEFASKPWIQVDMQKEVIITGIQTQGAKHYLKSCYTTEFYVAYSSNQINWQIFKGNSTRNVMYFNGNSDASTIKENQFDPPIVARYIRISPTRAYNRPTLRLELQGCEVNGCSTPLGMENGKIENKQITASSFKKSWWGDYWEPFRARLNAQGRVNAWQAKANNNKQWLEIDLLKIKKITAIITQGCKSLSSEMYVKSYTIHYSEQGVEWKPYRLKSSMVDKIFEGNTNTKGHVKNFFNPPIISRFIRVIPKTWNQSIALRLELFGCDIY
factor Xa, sequence (P00742 235-488 limits assumed): as the sequence (P00742 235-488 limits assumed) above
factor Xa, sequence (P00742 41-179 limits assumed): as the sequence (P00742 41-179 limits assumed) above

Question: What does the source list for `CN(C)C(=NCCCC[C@@H](NC(=O)OC(C)(C)C)C(=O)NCC(=O)N[C@H](C=O)CCCNC(=N)N)N(C)C` [Boc-D-Har((CH3)4)-Gly-Arg-H]?
Answer: IC50 (prothrombinase complex): 44 µM; IC50 (factor Xa): 5 µM

Question: For `N=C(N)NCCC[C@@H](C=O)NC(=O)CNC(=O)[C@@H](CCCNC(=N)N)NC(=O)CCc1ccccc1` [PhCH2 CH2 CO-D-Arg-Gly-Arg-H, 3-Phenylpropanoyl-D-Arg-Gly-Arg-H] (Hydrocinnamoyl-[dR]-Gly-Arg-aldehyde), which IC50 (prothrombinase complex) is on record?
Answer: Its IC50 is 1.7 µM.

Question: For `N=C(N)NCCC[C@@H](C=O)NC(=O)CNC(=O)[C@@H](CCCNC(=N)N)NC(=O)C(=O)O` [HOOCCO-D-Arg-Gly-Arg-H, Oxaloyl-D-Arg-Gly-Arg-H], which IC50 (prothrombinase complex) is on record?
Answer: Its IC50 is 0.063 µM.

Question: For `CC(C)(C)OC(=O)N[C@H](CCCNC(N)=O)C(=O)NCC(=O)N[C@H](C=O)CCCNC(=N)N` [Boc-D-Cit-Gly-Arg-H] (Boc-[dCit]-Gly-Arg-aldehyde), which IC50 (factor Xa) is on record?
Answer: Its IC50 is 3 µM.

Question: With `CC(C)(C)OC(=O)N[C@H](CCCNC(=N)N)C(=O)NCC(=O)N[C@H](C=O)CCCNC(=N)N` [Boc-D-Arg-Gly-Arg-H] (Boc-[dR]-Gly-Arg-aldehyde) as the compound, how does the Hct ([1]; 200 + 1.98 μg/kg + μg/kg/min) read?
Answer: The Hct was 36.9%.

Question: And the PLT ([1]; 200 + 1.98 μg/kg + μg/kg/min)?
Answer: Its PLT is 393 ± 84 × 10^3 /μL.

Question: And the RBC ([1]; 200 + 1.98 μg/kg + μg/kg/min)?
Answer: The RBC was 5.69 ± 0.14 × 10^6 /μL.

Question: What about the WBC ([1]; 200 + 1.98 μg/kg + μg/kg/min) of the same compound?
Answer: Its WBC is 4.45 ± 0.97 × 10^3 /μL.

Question: And the Hct ([1]; 600 + 5.94 μg/kg + μg/kg/min)?
Answer: The Hct was 35.3%.

Question: What about the PLT ([1]; 600 + 5.94 μg/kg + μg/kg/min) of the same compound?
Answer: Its PLT is 442 ± 81 × 10^3 /μL.

Question: What about the RBC ([1]; 600 + 5.94 μg/kg + μg/kg/min) of the same compound?
Answer: The RBC was 5.74 ± 0.48 × 10^6 /μL.

Question: And the WBC ([1]; 600 + 5.94 μg/kg + μg/kg/min)?
Answer: Its WBC is 3.87 ± 0.65 × 10^3 /μL.

Question: And the Hct ([1]; 1000 + 9.90 μg/kg + μg/kg/min)?
Answer: Its Hct is 35.5%.

Question: What about the PLT ([1]; 1000 + 9.90 μg/kg + μg/kg/min) of the same compound?
Answer: Its PLT is 375 ± 73 × 10^3 /μL.

Question: What about the RBC ([1]; 1000 + 9.90 μg/kg + μg/kg/min) of the same compound?
Answer: The RBC was 5.71 ± 0.28 × 10^6 /μL.

Question: And the WBC ([1]; 1000 + 9.90 μg/kg + μg/kg/min)?
Answer: The WBC was 5.09 ± 1.61 × 10^3 /μL.

Question: And the Hct ([1]; 1500 + 14.85 μg/kg + μg/kg/min)?
Answer: Its Hct is 36.0%.

Question: And the PLT ([1]; 1500 + 14.85 μg/kg + μg/kg/min)?
Answer: The PLT was 433 ± 22 × 10^3 /μL.

Question: What about the RBC ([1]; 1500 + 14.85 μg/kg + μg/kg/min) of the same compound?
Answer: The RBC was 5.80 ± 0.50 × 10^6 /μL.

Question: What about the WBC ([1]; 1500 + 14.85 μg/kg + μg/kg/min) of the same compound?
Answer: The WBC was 4.82 ± 1.01 × 10^3 /μL.

Question: What about the “effects on hematological parameters as compared to saline controls” value ([1]; all dose regimens) of the same compound?
Answer: The value was “no significant effects”.

Question: And the “antithrombotic efficacy in the rabbit venous thrombosis model” value ([1]; bolus + infusion, dose range)?
Answer: Its value is “demonstrated antithrombotic efficacy at the higher doses evaluated”.

Question: What about the “average increase in PT” value [2] of the same compound?
Answer: Its value is 1.07 fold.

Question: What about the “average increase in aPTT” value [2] of the same compound?
Answer: The value was 1.61 fold.
